We go through 4 compounds from patent US20050008687A1, “Metal-porphyrin-complex-embedded liposomes, production process thereof, and medicines making use of the same” (Makoto Yuasa, priority 2003, published 2005).

Assay [1] has as its system mouse lung cancer cells [Lewis Lung Carcinoma (LLC)]. Nature of the assay: Anticancer characteristic test: cytotoxicity test (apoptosis test) by the Alamar Blue technique. Format: cell-based. The conditions noted are these: FIG. 3. The procedure:
Anticancer characteristics of a Pr-embedded liposome according to the present invention were examined by a cytotoxicity test (apoptosis test) making use of the Alamar Blue technique.
Employed were the FeT2 MPyP+4SAS-embedded DMPC liposome system (Invention Product 4, FeT2 MPyP concentrations: 0, 12.5, 25, 50, 100 μM) as a test sample and its corresponding cationic metalloporphyrin complex (FeT2 MPyP) and ion complex system (FeT2 MPyP+4SAS) as reference samples. As cells, on the other hand, mouse lung cancer cells [Lewis Lung Carcinoma (LLC), Riken Gene Bank] were used.
In the test, the mouse lung cancer cells were cultured in DMEM medium with 10% FBS added therein. Subsequent to determination of the cell count and adjustment of the cell concentration, the resulting cell suspension was added to the individual wells of a 96-well plate (100 μL/well, cell count: 1×10^4 cells/well), followed by incubation for 24 hours in a carbon dioxide incubator (CO2:5%). After the medium was removed from the plate, sample solutions of the respective concentrations (100 μL/well, sample concentrations: 0 to 100 μM), said sample solutions having had been prepared in advance, were added, followed by further incubation for 24 hours in the CO2 incubator.
An Alamar Blue solution, which had been sterilized by filtration, was added at 10 μL/well, followed by incubation for 5 hours. Subsequently, absorbance measurements (measurement wavelength: 570 nm, and reference wavelength: 600 nm) were conducted by using a microplate reader.
Anticancer characteristics of Pr-embedded liposomes according to the present invention were examined by a cytotoxicity test (apoptosis test) making use of the Alamar Blue technique as in Example 15.
As test samples, various Pr-embedded liposomes were used (metalloporphyrin complex concentrations: 0, 12.5, 25, 50, 100 μM). As reference samples, on the other hand, the components of the Pr-embedded liposomes, that is, the metalloporphyrin complexes (concentrations: 0, 12.5, 25, 50, 100 μM) and liposomes (concentrations: 2500, 5000, 10000, 20000 μM) were employed (the concentrations of both of the components were set corresponding to the concentrations of the Pr-embedded liposomes).
Provided as comparative samples were cisplatin (CDDP; concentrations: 0, 10, 20, 40, 80 μM) and mitomycin C (MMC; concentrations: 0, 7.5, 15, 30, 60 μM), which are anticancer agents employed at present. A test was conducted as in Example 15, and the following results were obtained.
Anticancer characteristics of pH-sensitive, Pr-embedded liposomes were examined by a cytotoxicity test (apoptosis test) making use of the Alamar Blue technique as in Example 15. […]
On the technique in general: Resazurin is reduced to fluorescent resorufin, in cell work by metabolically active cells.

The nature of assay [2]: SOD activity (O2-. scavenging) by the stopped-flow method. It counts as biochemical. To be noted: Table 8. The procedure: The SOD activity (in other words, O2^−. scavenging activity) of each Pr-embedded liposome was evaluated by the stopped-flow method proposed by Riley et al. [D. P. Riley, W. L. Rivers, and R. H. Weiss, Anal. Biochem., 196, 344 (1991)]. Specifically, the evaluation was conducted as will be described hereinafter. At 36° C., a solution of potassium superoxide as an O2^−. production source in dimethylsulfoxide and one of 60 mM HEPES/HEPESNa buffered solutions (pH 8.1), which contained one of the Pr-embedded liposomes at various concentrations, were promptly mixed, and the decay in absorbance at 245 nm due to O2^−. (the decay curve of O2^−. scavenging reaction) was measured with time. From the decay curve, a “ln (absorbance)-versus-time” relationship was determined, and further, an apparent rate constant was calculated from the slope of the relationship. From the slope of the “concentration of metalloporphyrin complex-versus-apparent rate constant” relationship, the rate constant (Kcat) of the O2^−. scavenging reaction was finally determined. As a reference, ion complexes (MnT4 MPyP+1SAS and MnT4 MPyP+4SAS) were also evaluated likewise in SOD activity.
Various metalloporphyrin complexes, which represent Pr-embedded liposomes, were compared in SOD activity. […] Incidentally, the samples were prepared and measured as in Examples 19 and 20.

Assay [3] is described as follows: SOD activity (O2-. scavenging) by the cytochrome c method. It counts as biochemical. The conditions noted are these: Table 8. The procedure: The SOD activity (in other words, O2^−. scavenging activity) of each Pr-embedded liposome was evaluated by the cytochrome c method proposed by Mccord and Fridovich or Butler et al. [(1) J. M. Mccord and I. Fridovich, J. Biol. Chem., 244, 6049 (1969) and (2) J. Butler, W. H. Kopenol, E. Margoliash, J. Biol. Chem., 257, 10747 (1982)]. Specifically, the evaluation was conducted as will be described hereinafter. Solutions (Solutions A) of each Pr-embedded liposome were prepared at five or more concentration levels of from 0 to 1,000 μM in terms of the concentration of the metalloporphyrin. […] With the resultant mixture, a 7 μg/mL aqueous catalase solution (0.1 mL) and a 25 U/mL aqueous xanthine oxidase (XOD) solution (0.3 mL) were promptly mixed, and UV-vis was measured with time at 550 nm (absorption peak based on the formation of ferrocytochome c)(the final concentrations of the respective components in the test solution were as follows: the metal porphyrin complex, 0 to 100 SM; xanthine, 0.05 mM; XOD, 2.5U/mL; cytochrome c, 10 μM; catalase, 0.23 μg/mL). […] Finally, the concentration (IC50) of each metalloporphyrin complex at IC=50% was determined from the concentration of metalloporphyrin-versus-IC” relationship, and the IC50 was used as an index of the SOSD-activating effect of the metalloporphyrin complex (smaller IC50 indicates higher SOD activity). […]

For assay [4] the following is noted: literature value reported by Ohse, Kawakami et al.; Table 7; cited from earlier work.
The conditions of assay [5]: literature value reported by Fridovich et al.; Table 6; cited from earlier work.

Like-named read-outs stand apart in the source and are kept apart here.

As for `C[n+]1ccccc1-c1c2nc(c(-c3cccc[n+]3C)c3ccc([n-]3)c(-c3cccc[n+]3C)c3nc(c(-c4cccc[n+]4C)c4ccc1[n-]4)C=C3)C=C2.[Fe+2]` [FeT2 MPyP, iron[5,10,15,20-tetrakis(2-methylpyridyl)porphyrin]], in assay [1], the “viability of LLC versus added concentration” value is given as “dropped as the added concentration increased”. In assay [1] (FeT2 MPyP concentrations of 25 μM and higher), the “viability of LLC compared with CDDP and MMC” value was “lower than those in the cases of CDDP and MMC”.

For `C[n+]1ccc(-c2c3nc(c(-c4cc[n+](C)cc4)c4ccc([n-]4)c(-c4cc[n+](C)cc4)c4nc(c(-c5cc[n+](C)cc5)c5ccc2[n-]5)C=C4)C=C3)cc1.[Mn+2]` [MnT4MPyP, manganese[5,10,15,20-tetrakis(4-methylpyridyl)porphyrin]], the Kcat in assay [2] and in assay [4] was 2.2e+07 M⁻¹ s⁻¹ each time. Further, the IC50 in assay [3] was 740 nM; in assay [5], 700 nM.

Regarding `CO[C@@]12[C@H](COC(N)=O)C3=C(C(=O)C(C)=C(N)C3=O)N1C[C@@H]1N[C@@H]12` [MMC, mitomycin C, reference compound], the “viability of LLC versus added concentration” value in assay [1] is “dropped as the added concentration increased”.

As to `[NH2][Pt]([NH2])([Cl])[Cl]` [CDDP, cisplatin, reference compound], the “viability of LLC versus added concentration” value in assay [1] is “dropped as the added concentration increased”.

In general, IC50 refers to the concentration at which inhibition is half-maximal.
